{"source": "patent US20080138838A1", "about": "“DIAGNOSIS OF ZD1839 RESISTANT TUMORS” (CEDARS-SINAI MEDICAL CENTER, priority 2002, published 2008)", "tested_on": "androgen-independent human cell line CWR22R grown as a xenograft", "assay": "ZD1839 resistant xenograft model of human prostate cancer", "assay_type": "in vivo", "protocol": "The androgen-independent human cell line CWR22R was grown as a xenograft in nude mice. See Nagabhushan, et al. (1996) Cancer Res. 56:3042-3046; Agus, et al. (1999) J. Nat'l Cancer Inst. 91:1869-1876; and Bubendorf, et al. (1999) J. Nat'l Cancer Inst. 91:1758-1764. […] The mice were treated continuously with sub-therapeutic doses, and the tumors were allowed to grow for 3-4 weeks, before surgical removal of the tumors. The tumor from an individual mouse was then minced, and a small portion was then injected into a healthy nude mouse, establishing a second passage of the tumor. This mouse was then treated continuously with the same sub-therapeutic dose of ZD1839. This process was repeated 10 times, and a portion of each generation of xenograft tumor was collected. […] RNA from each generation of tumor was then isolated, and individual mRNA species were quantified using a custom Affymetrix GENECHIP® (DNA microarray chip) oligonucleotide microarray (Eos Hu03), with probes to interrogate approximately 46,000 unique mRNA transcripts. […] The gene products of the genes listed in Tables 1A-C may be particularly useful as targets in the treatment of ZD1839 resistant tumors derived from prostate cancer, small cell lung cancer, breast cancer, glioblastoma, cervical cancer, colon cancer, head and neck cancer, renal cell carcinoma, and pancreatic cancer. Prostate cancer includes epithelial neoplasms (e.g., adenocarcinoma, small cell tumors, transitional cell carcinoma, carcinoma in situ, and basal cell carcinoma), carcinosarcoma, non-epithelial neoplasms (e.g., mesenchymal and lymphoma), germ cell tumors, prostatic intraepithelial neoplasia (PIN), hormone independent prostate cancer, and metastatic prostate cancer (e.g., to bone, lung, or lymph node).", "data": [{"smiles": "COc1cc2ncnc(Nc3ccc(F)c(Cl)c3)c2cc1OCCCN1CCOCC1", "note": "[ZD1839]", "values": [{"measurement": "response of xenograft tumors to therapeutic doses of ZD1839", "setting": "end of the process (passaging repeated 10 times under continuous sub-therapeutic doses, nude mice)", "value": "fully resistant to therapeutic doses"}, {"measurement": "response of xenograft tumors to therapeutic doses of ZD1839", "setting": "initially (parental CWR22R xenograft in nude mice)", "value": "sensitive to therapeutic doses"}, {"measurement": "resistance of xenograft tumors to therapeutic doses of ZD1839", "setting": "successive passages in nude mice under continuous sub-therapeutic doses", "value": "increased with each generation"}]}]}
